# Laboratory results: patent US20210186923A1, “THERAPEUTIC FORMULATIONS AND USES THEREOF” (PIEDMONT ANIMAL HEALTH INC., priority 2017, published 2021)
# Legend:
# [1] = system: dogs with naturally occurring coxofemoral joint disease; assay: PAH-100 oral tablet efficacy (PAH16-013), kinetic gait analysis; details: for abnormal clinical observations or adverse events: nine hound dogs, each received all treatments, PAH-100 single oral 3 mg/kg, carprofen 4.4 mg/kg PO q24 hr, 7 doses
# Description: (§1) Efficacy was determined by rear limb using a quantified kinetic gait analysis.
# [2] = system: dogs with naturally occurring coxofemoral joint disease; details: dog, in vivo, po, 3 mg/kg
# Description: as §1
SMILES,abnormal clinical observations or adverse events [1],tolerability [2],"limb use by kinetic gait analysis, compared to no treatment and daily carprofen ([1]; dogs with coxofemoral joint osteoarthritis, single oral 3 mg/kg, over 7 days, majority of kinetic outcomes)"
"CC(C(=O)O)c1ccc2c(c1)[nH]c1ccc(Cl)cc12 (stereo not shown) [carprofen, reference compound]",No abnormal clinical observations or adverse events,,
"O=C(O)C1=Cc2cc(OC(F)(F)F)ccc2OC1C(F)(F)F (racemic) [PAH-100, (±)-6-(trifluoromethoxy)-2-(trifluoromethyl)-2H-chromene-3-carboxylic acid]",No abnormal clinical observations or adverse events,well tolerated,improved limb use
